Structures can show the parent of a compound that is named as a salt.
Legend:
Xenopus tadpole = conditions: stage 59-60, 10 μg/ml; in words
[1] = system: chick embryo vitelline capillaries; assay: Chick embryo vitelline capillary regression assay; format: in vivo; design: key to vascular reactivity (capillary regression): +: Vascular reactivity; 0: No vascular reactivity; +/-: Equivocal reactivity; conditions: for Chick embryo diss. assay, Minimum Effective Concentration: Table II; for vascular reactivity (capillary regression): 60 min; for effect on chick embryo vessels / blood: in words
Method: Using the chick embryo vitelline capillaries assay, compounds were tested for their ability to induce capillary regression. Each compound was applied in 0.1 ml of 15% Ficol 400 and PBS onto the embryo, and vascular regression was assessed after 60 minutes.
The 3-day chick embryo consists of an embryonic disc from which numerous vessels emerge and return, forming a "figure 8"-shaped structure--the embryo in the center with vascular loops extending outward over both poles. […] Following a lag period of around 15 minutes, the constriction of continuity between capillary and secondary vessels, generally on the "avenous" side, was observed. Continued pulsatile blood flow progressed, resulting in a "swelling" of the blind tube, followed by a pinching off of the remaining connection and formation of an enclosed vascular sac resembling a "blood island." This process progressed until only the largest vessels remained intact.

| SMILES | pharmacological response in tadpole (Xenopus tadpole) | Chick embryo diss. assay, Minimum Effective Concentration [1] | vascular reactivity (capillary regression) ([1]; 1 μg applied) | other results |
| --- | --- | --- | --- | --- |
| COC(=O)CC[C@@H](C)[C@H]1CC[C@H]2[C@@H]3CC[C@H]4C[C@H](NCCCNCCCCNCCCN)CC[C@]4(C)[C@H]3CC[C@]12C [Compound 458] | pharmacologic activity similar to that seen for FX 3 | > 1 µg |  |  |
| COC(=O)CC[C@@H](C)[C@H]1CC[C@H]2[C@@H]3C[C@@H](O)[C@H]4C[C@@H](NCCN)CC[C@]4(C)[C@H]3CC[C@]12C [Compound 432] | functionally similar to compound 1437 | > 1 µg |  |  |
| COC(=O)CC[C@@H](C)[C@H]1CC[C@H]2[C@@H]3CC[C@@H]4C[C@H](NCCCNCCCCNCCCN)CC[C@]4(C)[C@H]3C[C@H](O)[C@]12C [Compound 448] |  | 1 µg |  |  |
| COC(=O)CC[C@@H](C)[C@H]1CC[C@H]2[C@@H]3[C@H](O)C[C@H]4C[C@H](NCCCNCCCCN)CC[C@]4(C)[C@H]3CC[C@]12C [Compound 394] |  | > 10 µg |  |  |
| COC(=O)CC[C@@H](C)[C@H]1CC[C@H]2[C@@H]3[C@H](O)C[C@@H]4C[C@@H](NCCCNCCCCNCCCN)CC[C@]4(C)[C@H]3CC[C@]12C [Compound 411] |  | > 1 µg | +/- |  |
| C[C@H](CCC(=O)O)[C@H]1CC[C@H]2[C@@H]3CC[C@@H]4C[C@H](NCCCNCCCCNCCCN)CC[C@]4(C)[C@H]3C[C@H](O)[C@]12C [Compound 449] |  | > 1 µg |  |  |
| COC(=O)CC[C@@H](C)[C@H]1CC[C@H]2[C@@H]3C[C@@H](O)[C@H]4C[C@@H](NCCCNCCCCNCCCN)CC[C@]4(C)[C@H]3CC[C@]12C [Compound 466] | pharmacologic activity similar to that seen for FX 3 | 1 µg |  |  |
| COC(=O)CC[C@@H](C)[C@H]1CC[C@H]2[C@@H]3[C@H](O)C[C@@H]4C[C@@H](NCCN)CC[C@]4(C)[C@H]3CC[C@]12C [Compound 409] | functionally similar to compound 1437 | > 1 µg | 0 |  |
| CC(C)CCC[C@@H](C)[C@H]1CC[C@H]2[C@@H]3CC[C@H]4C[C@H](NCCCN5CCCCN=C5N)CC[C@]4(C)[C@H]3CC[C@]12C [Compound 393] |  | > 10 µg |  |  |
| C[C@H](CCC(=O)O)[C@H]1CC[C@H]2[C@@H]3[C@H](O)C[C@H]4C[C@H](NCCCNCCCCN)CC[C@]4(C)[C@H]3CC[C@]12C [Compound 382] |  | 0.01 µg | + | vascular reactivity (capillary regression) ([1]; 0.001 μg applied): 0; vascular reactivity (capillary regression) ([1]; 0.01 μg applied): 0; vascular reactivity (capillary regression) ([1]; 0.1 μg applied): 0; vascular reactivity (capillary regression) ([1]; 10 μg applied): + |
| COC(=O)CC[C@@H](C)[C@H]1CC[C@H]2[C@@H]3CC[C@H]4C[C@@H](NCCCNCCCCNCCCN)CC[C@]4(C)[C@H]3CC[C@]12C [Compound 459] | pharmacologic activity similar to that seen for FX 3 | > 1 µg |  |  |
| C[C@H](CCC(=O)O)[C@H]1CC[C@H]2[C@@H]3[C@H](O)C[C@@H]4C[C@H](NCCCNCCCCNCCCN)CC[C@]4(C)[C@H]3CC[C@]12C [Compound 412] | pharmacologic activity similar to that seen for FX 3 | 1 µg | + | vascular reactivity (capillary regression) ([1]; 0.001 μg applied): 0; vascular reactivity (capillary regression) ([1]; 0.01 μg applied): 0; vascular reactivity (capillary regression) ([1]; 0.1 μg applied): 0 |
| CC(C)CCC[C@@H](C)[C@H]1CC[C@H]2[C@@H]3CC[C@H]4C[C@H](NCCCNCCCCNCCCN)CC[C@]4(C)[C@H]3CC[C@]12C [Compound 354] |  | > 10 µg |  |  |
| COC(=O)CC[C@@H](C)[C@H]1CC[C@H]2[C@@H]3[C@H](O)C[C@H]4C[C@H](NCCCNCCCCNCCCN)CC[C@]4(C)[C@H]3CC[C@]12C [Compound 395] |  | > 10 µg |  |  |
| COC(=O)CC[C@@H](C)[C@H]1CC[C@H]2[C@@H]3C[C@@H](O)[C@H]4C[C@H](NCCCNCCCCNCCCN)CC[C@]4(C)[C@H]3CC[C@]12C [Compound 465] | pharmacologic activity similar to that seen for FX 3 |  |  |  |
| C[C@H](CCC(=O)O)[C@H]1CC[C@H]2[C@@H]3[C@H](O)C[C@@H]4C[C@@H](NCCCNCCCCNCCCN)CC[C@]4(C)[C@H]3CC[C@]12C [Compound 413] | effects like those produced by compound 1436 | > 1 µg | 0 |  |
| CC(C)CCC[C@@H](C)[C@H]1CC[C@H]2[C@@H]3[C@H](O)C[C@H]4C[C@H](N)CC[C@]4(C)[C@H]3CC[C@]12C [Compound 1363] | pharmacologic activity similar to Fraction 1 |  |  |  |
| COC(=O)CC[C@@H](C)[C@H]1CC[C@H]2[C@@H]3[C@H](O)C[C@H]4C[C@@H](NCCCNCCCCNCCCN)CC[C@]4(C)[C@H]3CC[C@]12C [Compound 396] |  | 10 µg | + | vascular reactivity (capillary regression) ([1]; 0.001 μg applied): 0; vascular reactivity (capillary regression) ([1]; 0.01 μg applied): 0; vascular reactivity (capillary regression) ([1]; 0.1 μg applied): 0 |
| COC(=O)CC[C@@H](C)[C@H]1CC[C@H]2[C@@H]3C[C@@H](O)[C@H]4C[C@H](NCCN)CC[C@]4(C)[C@H]3CC[C@]12C [Compound 431] | functionally similar to compound 1437 | > 1 µg |  |  |
| COC(=O)CC[C@@H](C)[C@H]1CC[C@H]2[C@@H]3[C@H](O)C[C@@H]4C[C@H](NCCN)CC[C@]4(C)[C@H]3CC[C@]12C [Compound 410] | functionally similar to compound 1437 | 0.01 µg | + | vascular reactivity (capillary regression) ([1]; 0.001 μg applied): 0; vascular reactivity (capillary regression) ([1]; 0.01 μg applied): +/-; vascular reactivity (capillary regression) ([1]; 0.1 μg applied): +/- |
| C[C@H](CCC(=O)O)[C@H]1CC[C@H]2[C@@H]3[C@H](O)C[C@@H]4C[C@@H](NCCN)CC[C@]4(C)[C@H]3CC[C@]12C [Compound 415] |  | > 1 µg | + | vascular reactivity (capillary regression) ([1]; 0.001 μg applied): 0; vascular reactivity (capillary regression) ([1]; 0.01 μg applied): +; vascular reactivity (capillary regression) ([1]; 0.1 μg applied): +; effect on chick embryo vessels / blood [1]: especially active |
| CC(C)CCC[C@@H](C)[C@H]1CC[C@H]2[C@@H]3CC[C@H]4C[C@@H](NCCCNCCCCN)CC[C@]4(C)[C@H]3CC[C@]12C [Compound 303] |  | > 10 µg | 0 |  |
| C[C@H](CCC(=O)O)[C@H]1CC[C@H]2[C@@H]3[C@H](O)C[C@H]4C[C@@H](NCCCNCCCCN)CC[C@]4(C)[C@H]3CC[C@]12C [Compound 381] |  | > 10 µg | 0 |  |
| C[C@H](CCCOS(=O)(=O)O)[C@H]1CC[C@H]2[C@@H]3CC[C@H]4C[C@@H](NCCCNCCCCN)CC[C@]4(C)[C@H]3CC[C@]12C [Compound 399, 3β-N-1-{N[3-(4-Aminobutyl)]-1,3-diaminopropane}-24-hydroxy-5α-cholane 24-potassium sulfate] |  | > 10 µg |  |  |
| CC(COS(=O)(=O)O)C(=O)CC[C@@H](C)[C@H]1CC[C@H]2[C@@H]3[C@H](O)C[C@H]4C[C@@H](NCCCNCCCCN)CC[C@]4(C)[C@H]3CC[C@]12C (single isomer, unassigned) [Compound 1360] | Swelling and lysis of certain erythrocytes occurred, resulting in accumulation of nuclei within certain small vessels of the tail. Subsequent tissue breakdown occurred in areas of tail surrounding these nuclear plugs. | > 10 µg | 0 | effect on chick embryo vessels / blood [1]: Within 20 minutes, the blood circulating through the embryonic vessels exhibited a brighter red color |
| C[C@H](CCC(=O)O)[C@H]1CC[C@H]2[C@@H]3CC[C@@H]4C[C@H](NCCN)CC[C@]4(C)[C@H]3C[C@H](O)[C@]12C [Compound 417] |  | > 1 µg |  |  |
| C[C@H](CCC(=O)O)[C@H]1CC[C@H]2[C@@H]3[C@H](O)C[C@H]4C[C@@H](NCCCNCCCCNCCCN)CC[C@]4(C)[C@H]3CC[C@]12C [Compound 397] |  | 1 µg |  |  |
| C[C@H](CCC(=O)O)[C@H]1CC[C@H]2[C@@H]3C[C@@H](O)[C@H]4C[C@@H](NCCN)CC[C@]4(C)[C@H]3CC[C@]12C [Compound 433] | functionally similar to compound 1437 | 1 µg |  |  |
| CC(C)CCC[C@@H](C)[C@H]1CC[C@H]2[C@@H]3[C@H](O)C[C@H]4C[C@@H](N)CC[C@]4(C)[C@H]3CC[C@]12C [Compound 1364] |  |  | + | vascular reactivity (capillary regression) ([1]; 0.001 μg applied): 0; vascular reactivity (capillary regression) ([1]; 0.01 μg applied): 0; vascular reactivity (capillary regression) ([1]; 0.1 μg applied): 0; vascular reactivity (capillary regression) ([1]; 10 μg applied): + |
| C[C@H](CCC(=O)O)[C@H]1CC[C@H]2[C@@H]3CC[C@H]4C[C@H](NCCCNCCCCN)CC[C@]4(C)[C@H]3CC[C@]12C [Compound 318] |  | > 10 µg | 0 |  |

Source: patent US5840740A, “Aminosterol compounds and a method of treating infection using the aminosterol compounds” (priority 1995, dated 1998)
